In patent US8268836B2, “Compound useful as a c-Met inhibitor” (Eli Lilly and Company, priority 2010, dated 2012):
Like-named read-outs stand apart in the source and are kept apart here.

What was measured:
[1] = Plasma concentration in IVTI studies; type: in vivo; settings: athymic nude, mouse, oral, 10% acacia
Method: In IVTI studies, each compound is administered orally and formulated in 10% w/v acacia. Mouse blood samples are collected with anti-coagulant (EDTA-purple top Vacutainer tube) post-dose using cardiac puncture techniques. Tubes are inverted for 3-5 times and are placed on ice until centrifugation at 3000 RPM (1800×g) for 10 min at 4° C. to obtain plasma. Aliquots of plasma are pipetted and stored in a clean 96 well plate. Plasma samples are stored immediately at −80° C. Shipments of plasma samples are packed in dry ice and samples are frozen at −80° C. until analysis.
A 0.1-mg/mL stock solution of each drug was prepared and is serially diluted into pooled mouse plasma to prepare standards ranging from 1 to 5000 ng/mL. Plasma standards or samples (0.025 mL) in 96-well plates are treated by protein precipitation with the addition of a 0.1-0.2 ml of methanol: acetonitrile (1/1, v/v) containing internal standard. […] Samples and standards are analyzed with a Sciex API 4000 Triple Quadrupole Mass Spectrometer (Sciex, Division of MDS Inc., Toronto, Canada) coupled to a Shimadzu HPLC System (LC-10AD, Shimadzu Corporation) and a Gilson 215 Autosampler. […] Quantitation is performed using multiple reaction monitoring (MRM) at the following transitions: Example 1 (m/z 363.05 to m/z 163.10) and the reference compound 20 (m/z 363.05 to m/z 163.10). […]

[2] = target: cMet enzyme (Homo sapiens, UniProt P08581); assay: cMet Homogeneous Time Resolved Fluorescence (HTRF) in vitro assay; type: biochemical; settings: relative IC50; read-out: c-Met IC50 (HTRF)
Sequence of cMet enzyme (P08581 25-1390): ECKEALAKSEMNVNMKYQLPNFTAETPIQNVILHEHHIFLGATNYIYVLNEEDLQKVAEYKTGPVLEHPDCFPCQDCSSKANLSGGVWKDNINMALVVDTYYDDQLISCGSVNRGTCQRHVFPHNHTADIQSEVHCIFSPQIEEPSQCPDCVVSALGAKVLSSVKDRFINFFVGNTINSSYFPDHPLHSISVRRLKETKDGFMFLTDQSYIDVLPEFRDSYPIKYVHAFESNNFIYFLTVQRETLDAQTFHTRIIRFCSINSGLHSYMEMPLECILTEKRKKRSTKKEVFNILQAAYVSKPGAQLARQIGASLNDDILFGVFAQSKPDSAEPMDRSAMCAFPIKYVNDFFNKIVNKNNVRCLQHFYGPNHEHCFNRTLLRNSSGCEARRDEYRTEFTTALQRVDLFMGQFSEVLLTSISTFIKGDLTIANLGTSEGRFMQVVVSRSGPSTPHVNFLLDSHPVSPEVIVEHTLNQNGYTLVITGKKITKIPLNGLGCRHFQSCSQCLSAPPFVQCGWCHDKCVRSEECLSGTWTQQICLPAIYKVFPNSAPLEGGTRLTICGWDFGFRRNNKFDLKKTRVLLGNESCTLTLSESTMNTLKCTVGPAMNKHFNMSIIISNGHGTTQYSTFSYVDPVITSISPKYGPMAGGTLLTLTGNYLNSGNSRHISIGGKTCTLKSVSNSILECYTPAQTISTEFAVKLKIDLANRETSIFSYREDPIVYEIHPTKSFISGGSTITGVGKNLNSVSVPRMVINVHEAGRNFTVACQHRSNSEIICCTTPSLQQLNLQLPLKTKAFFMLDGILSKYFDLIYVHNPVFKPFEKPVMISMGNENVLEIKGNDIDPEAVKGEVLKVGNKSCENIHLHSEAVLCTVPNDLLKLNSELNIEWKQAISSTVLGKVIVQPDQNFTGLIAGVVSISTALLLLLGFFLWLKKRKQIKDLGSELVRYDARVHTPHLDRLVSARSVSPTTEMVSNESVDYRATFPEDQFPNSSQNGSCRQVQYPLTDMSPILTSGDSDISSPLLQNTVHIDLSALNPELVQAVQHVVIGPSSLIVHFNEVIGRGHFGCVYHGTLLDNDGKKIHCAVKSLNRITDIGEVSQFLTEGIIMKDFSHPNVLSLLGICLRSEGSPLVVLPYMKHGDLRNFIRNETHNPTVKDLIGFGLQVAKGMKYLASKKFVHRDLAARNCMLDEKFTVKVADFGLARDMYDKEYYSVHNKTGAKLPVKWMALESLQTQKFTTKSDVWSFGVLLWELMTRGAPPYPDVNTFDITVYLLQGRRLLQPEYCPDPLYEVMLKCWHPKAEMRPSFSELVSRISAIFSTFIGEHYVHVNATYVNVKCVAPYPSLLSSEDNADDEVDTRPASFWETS
Description: This assay is based on HTRF technology and it is used to detect the phosphorylation of biotin labeled tyrosine peptide by cMet enzyme. After the reaction is completed, XL665 labeled streptavidin is used to recognize the biotin unit and a Europium (Eu3+) labeled anti-phospho-tyrosine antibody is used to recognize the phosphorylated tyrosine. The detection process relies on the transfer of energy between the excited Eu3+ and the XL665 labeled streptavidin. The aim of this protocol is to calculate the ability of test compounds to inhibit the phosphorylation of the product of this reaction and calculate their relative IC50 values.
A reference compound, if desired, may be prepared as a 1 mM stock solution in 100% DMSO and test compounds are prepared as 10 mM stock solutions in 100% DMSO. 1 mM reference compound and 10 mM test compounds are pre-diluted to 8 μM and 80 μM 10% DMSO solutions in a 96-well dilution plate. Compounds are serially diluted (1:3) using Tecan Freedom EVO 200 and 10-point dilution curves are generated for each of the compounds tested. 10 μL of serially diluted compounds are transferred to a 96-well assay plate using Temo (Tecan). […] The assay plate is incubated at RT for 60 min before reading the fluorescence signals at 620 nm emission and 665 nm […] in a Victor3 instrument (PerkinElmer Corporation). […]

Cn1cc(-c2ccc3nnc(Sc4ccc5nn(C)cc5c4)n3n2)cn1 [Example 1, 6-(1-Methyl-1H-pyrazol-4-yl)-3-(2-methyl-2H-indazol-5-ylthio)-[1,2,4]triazolo[4,3-b]pyridazine]
concentration at 8 h ([1]; 8 mg/kg, read-out: Plasma conc. 8 mg/Kg after 8 h): 141 ng/mL
concentration at 8 h ([1]; 20 mg/kg, read-out: Plasma conc. 20 mg/Kg after 8 h): 318 ng/mL
IC50 [2]: 10 nM
